These are literature values, as cited in publication PMC12715049 (Journal of Molecular Medicine (Berlin, Germany), 2025).

This data set has as its system mHTT aggregates. As to conditions: read-out: IC50, binding to mHTT aggregates; radio-binding assays.

Take `COc1ccc(COc2ccc3oc(-c4ccc(=O)n(C)n4)nc3c2)nc1` [CHDI-180R]: the IC50 was 1.3 ± 1 nM.
